Values belong to the compound of their own block, whether it stands above or below them.
Biological target: AMPK
Test: AMPK activation, enzyme-linked immunosorbent assay
Assay type: biochemical
Details: Table 9, compounds of Table 2
Summary of the method: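 AMPK activation by test compounds was measured by enzyme-linked immunosorbent assay.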

SMILES: Cn1c2c(c3cc(C(=O)NC4CCN(Cc5cccnc5)CC4)ccc31)CN(Cc1ccc(C(F)(F)F)cc1)CC2 [Compound 2-18, 5-methyl-N-(1-(pyridin-3-ylmethyl)piperidin-4-yl)-2-(4-(trifluoromethyl)benzyl)-2,3,4,5-tetrahydro-1H-pyrido[4,3-b]indole-8-carboxamide]
EC50: 1 to 5 µM

SMILES: O=C(NC1CCN(Cc2ccccc2)CC1)c1ccc2[nH]c3c(c2c1)CN(S(=O)(=O)c1ccc(C(F)(F)F)cc1)CC3 [Compound 2-19, N-(1-benzylpiperidin-4-yl)-2-(4-(trifluoromethyl)phenylsulfonyl)-2,3,4,5-tetrahydro-1H-pyrido[4,3-b]indole-8-carboxamide]
EC50: > 100 µM

SMILES: CC(=O)n1c2c(c3cc(C(=O)NC4CCN(Cc5cccnc5)CC4)ccc31)CN(Cc1ccc(C(F)(F)F)cc1)CC2 [Compound 2-20, 5-acetyl-N-(1-(pyridin-3-ylmethyl)piperidin-4-yl)-2-(4-(trifluoromethyl)benzyl)-2,3,4,5-tetrahydro-1H-pyrido[4,3-b]indole-8-carboxamide]
EC50: 1 to 5 µM

SMILES: N#Cc1ccc(S(=O)(=O)N2CCC(NC(=O)c3ccc4[nH]c5c(c4c3)CN(Cc3ccc(C(F)(F)F)cc3)CC5)CC2)cc1 [Compound 2-21, N-(1-(4-cyanophenylsulfonyl)piperidin-4-yl)-2-(4-(trifluoromethyl)benzyl)-2,3,4,5-tetrahydro-1H-pyrido[4,3-b]indole-8-carboxamide]
EC50: 0.5 to 1 µM

SMILES: O=C(NC1CCN(S(=O)(=O)c2cccnc2)CC1)c1ccc2[nH]c3c(c2c1)CN(Cc1ccc(C(F)(F)F)cc1)CC3 [Compound 2-22, N-(1-(pyridin-3-ylsulfonyl)piperidin-4-yl)-2-(4-(trifluoromethyl)benzyl)-2,3,4,5-tetrahydro-1H-pyrido[4,3-b]indole-8-carboxamide]
EC50: 0.5 to 1 µM

SMILES: O=C(NC1CCN(S(=O)(=O)c2ccc(C(F)(F)F)cc2)CC1)c1ccc2[nH]c3c(c2c1)CN(Cc1ccc(C(F)(F)F)cc1)CC3 [Compound 2-23, 2-(4-(trifluoromethyl)benzyl)-N-(1-(4-(trifluoromethyl)phenylsulfonyl)piperidin-4-yl)-2,3,4,5-tetrahydro-1H-pyrido[4,3-b]indole-8-carboxamide]
EC50: 1 to 5 µM

SMILES: N#Cc1ccc(CN2CCC(NC(=O)c3ccc4[nH]c5c(c4c3)CN(S(=O)(=O)c3ccc(C(F)(F)F)cc3)CC5)CC2)cc1 [Compound 2-24, N-(1-(4-cyanobenzyl)piperidin-4-yl)-2-(4-(trifluoromethyl)phenylsulfonyl)-2,3,4,5-tetrahydro-1H-pyrido[4,3-b]indole-8-carboxamide]
EC50: 1 to 5 µM

SMILES: N#Cc1ccc(CN2CCC(NC(=O)c3ccc4[nH]c5c(c4c3)CN(S(=O)(=O)c3ccc(C#N)cc3)CC5)CC2)cc1 [Compound 2-25, N-(1-(4-cyanobenzyl)piperidin-4-yl)-2-(4-cyanophenylsulfonyl)-2,3,4,5-tetrahydro-1H-pyrido[4,3-b]indole-8-carboxamide]
EC50: 10 to 50 µM

SMILES: N#Cc1ccc(CN2CCC(NC(=O)c3ccc4[nH]c5c(c4c3)CN(S(=O)(=O)c3cccnc3)CC5)CC2)cc1 [Compound 2-26, N-(1-(4-cyanobenzyl)piperidin-4-yl)-2-(pyridin-3-ylsulfonyl)-2,3,4,5-tetrahydro-1H-pyrido[4,3-b]indole-8-carboxamide]
EC50: 10 to 50 µM

SMILES: N#Cc1ccc(NC(=O)N2CCC(NC(=O)c3ccc4[nH]c5c(c4c3)CN(Cc3ccc(C(F)(F)F)cc3)CC5)CC2)cc1 [Compound 2-27, N-(1-(4-cyanophenylcarbamoyl)piperidin-4-yl)-2-(4-(trifluoromethyl)benzyl)-2,3,4,5-tetrahydro-1H-pyrido[4,3-b]indole-8-carboxamide]
EC50: 1 to 5 µM

SMILES: O=C(NC1CCN(S(=O)(=O)c2ccc(F)cc2)CC1)c1ccc2[nH]c3c(c2c1)CN(Cc1ccc(C(F)(F)F)cc1)CC3 [Compound 2-28, N-(1-(4-fluorophenylsulfonyl)piperidin-4-yl)-2-(4-(trifluoromethyl)benzyl)-2,3,4,5-tetrahydro-1H-pyrido[4,3-b]indole-8-carboxamide]
EC50: 1 to 5 µM

SMILES: N#Cc1cccc(S(=O)(=O)N2CCC(NC(=O)c3ccc4[nH]c5c(c4c3)CN(Cc3ccc(C(F)(F)F)cc3)CC5)CC2)c1 [Compound 2-29, N-(1-(3-cyanophenylsulfonyl)piperidin-4-yl)-2-(4-(trifluoromethyl)benzyl)-2,3,4,5-tetrahydro-1H-pyrido[4,3-b]indole-8-carboxamide]
EC50: 1 to 5 µM

SMILES: O=C(NC1CCN(S(=O)(=O)c2cccc(C(F)(F)F)c2)CC1)c1ccc2[nH]c3c(c2c1)CN(Cc1ccc(C(F)(F)F)cc1)CC3 [Compound 2-30, 2-(4-(trifluoromethyl)benzyl)-N-(1-(3-(trifluoromethyl)phenylsulfonyl)piperidin-4-yl)-2,3,4,5-tetrahydro-1H-pyrido[4,3-b]indole-8-carboxamide]
EC50: 1 to 5 µM

SMILES: O=C(NC1CCN(S(=O)(=O)c2ccc(Cl)cc2)CC1)c1ccc2[nH]c3c(c2c1)CN(Cc1ccc(C(F)(F)F)cc1)CC3 [Compound 2-32, N-(1-(4-chlorophenylsulfonyl)piperidin-4-yl)-2-(4-(trifluoromethyl)benzyl)-2,3,4,5-tetrahydro-1H-pyrido[4,3-b]indole-8-carboxamide]
EC50: 1 to 5 µM

SMILES: O=C(NC1CCN(C(=O)Nc2ccc(C(F)(F)F)cc2)CC1)c1ccc2[nH]c3c(c2c1)CN(Cc1ccc(C(F)(F)F)cc1)CC3 [Compound 2-33, 2-(4-(trifluoromethyl)benzyl)-N-(1-(4-(trifluoromethyl)phenylcarbamoyl)piperidin-4-yl)-2,3,4,5-tetrahydro-1H-pyrido[4,3-b]indole-8-carboxamide]
EC50: 1 to 5 µM

SMILES: O=C(NC1CCN(S(=O)(=O)c2ccc(F)cc2)CC1)c1ccc2[nH]c3c(c2c1)CN(c1ccc(F)cc1)CC3 [Compound 2-35, 2-(4-fluorophenyl)-N-(1-(4-fluorophenylsulfonyl)piperidin-4-yl)-2,3,4,5-tetrahydro-1H-pyrido[4,3-b]indole-8-carboxamide]
EC50: 10 to 50 µM

SMILES: O=C(NC1CCN(Cc2cccnc2)CC1)c1ccc2[nH]c3c(c2c1)CN(c1ccc(F)cc1)CC3 [Compound 2-36, 2-(4-fluorophenyl)-N-(1-(pyridin-3-ylmethyl)piperidin-4-yl)-2,3,4,5-tetrahydro-1H-pyrido[4,3-b]indole-8-carboxamide]
EC50: > 100 µM

SMILES: O=C(NC1CCN(Cc2ccc(C(F)(F)F)cc2)CC1)c1ccc2[nH]c3c(c2c1)CN(c1ccc(F)cc1)CC3 [Compound 2-37, 2-(4-fluorophenyl)-N-(1-(4-(trifluoromethyl)benzyl)piperidin-4-yl)-2,3,4,5-tetrahydro-1H-pyrido[4,3-b]indole-8-carboxamide]
EC50: 5 to 10 µM

SMILES: CC(C)(C)OC(=O)N1CCC(NC(=O)c2ccc3[nH]c4c(c3c2)CN(c2ccc(F)cc2)CC4)CC1 [Compound 2-38, tert-butyl 4-(2-(4-fluorophenyl)-2,3,4,5-tetrahydro-1H-pyrido[4,3-b]indole-8-carboxamido)piperidine-1-carboxylate]
EC50: 10 to 50 µM

The remaining lines, values ahead:

EC50: < 0.5 µM
SMILES: N#Cc1ccc(CN2CCC(NC(=O)c3ccc4[nH]c5c(c4c3)CN(Cc3ccc(F)cc3)CC5)CC2)cc1 [Compound 2-9, N-(1-(4-cyanobenzyl)piperidin-4-yl)-2-(4-fluorobenzyl)-2,3,4,5-tetrahydro-1H-pyrido[4,3-b]indole-8-carboxamide]

EC50: 0.5 to 1 µM
SMILES: O=C(NC1CCN(Cc2ccc(C(F)(F)F)cc2)CC1)c1ccc2[nH]c3c(c2c1)CN(Cc1ccc(F)cc1)CC3 [Compound 2-10, N-(1-(4-trifluoromethylbenzyl)piperidin-4-yl)-2-(4-fluorobenzyl)-2,3,4,5-tetrahydro-1H-pyrido[4,3-b]indole-8-carboxamide]

EC50: < 0.5 µM
SMILES: O=C(NC1CCN(Cc2cccnc2)CC1)c1ccc2[nH]c3c(c2c1)CN(Cc1ccc(C(F)(F)F)cc1)CC3 [Compound 2-11, N-(1-(pyridin-3-ylmethyl)piperidin-4-yl)-2-(4-(trifluoromethyl)benzyl)-2,3,4,5-tetrahydro-1H-pyrido[4,3-b]indole-8-carboxamide]

EC50: < 0.5 µM
SMILES: N#Cc1ccc(CN2CCC(NC(=O)c3ccc4[nH]c5c(c4c3)CN(Cc3ccc(C(F)(F)F)cc3)CC5)CC2)cc1 [Compound 2-12, N-(1-(4-cyanobenzyl)piperidin-4-yl)-2-(4-(trifluoromethyl)benzyl)-2,3,4,5-tetrahydro-1H-pyrido[4,3-b]indole-8-carboxamide]

EC50: < 0.5 µM
SMILES: O=C(NC1CCN(Cc2ccc(C(F)(F)F)cc2)CC1)c1ccc2[nH]c3c(c2c1)CN(Cc1ccc(C(F)(F)F)cc1)CC3 [Compound 2-13, N-(1-(4-trifluoromethylbenzyl)piperidin-4-yl)-2-(4-(trifluoromethyl)benzyl)-2,3,4,5-tetrahydro-1H-pyrido[4,3-b]indole-8-carboxamide]

EC50: < 0.5 µM
SMILES: O=C(NC1CCN(CCc2ccccc2)CC1)c1ccc2[nH]c3c(c2c1)CN(Cc1ccc(C(F)(F)F)cc1)CC3 [Compound 2-14, N-(1-phenethylpiperidin-4-yl)-2-(4-(trifluoromethyl)benzyl)-2,3,4,5-tetrahydro-1H-pyrido[4,3-b]indole-8-carboxamide]

EC50: < 0.5 µM
SMILES: O=C(NC1CCN(c2ccc(F)cc2)CC1)c1ccc2[nH]c3c(c2c1)CN(Cc1ccc(C(F)(F)F)cc1)CC3 [Compound 2-15, N-(1-(4-fluorophenyl)piperidin-4-yl)-2-(4-(trifluoromethyl)benzyl)-2,3,4,5-tetrahydro-1H-pyrido[4,3-b]indole-8-carboxamide]

EC50: < 0.5 µM
SMILES: Cn1c2c(c3cc(C(=O)NC4CCN(Cc5ccc(C#N)cc5)CC4)ccc31)CN(Cc1ccc(C(F)(F)F)cc1)CC2 [Compound 2-16, N-(1-(4-cyanobenzyl)piperidin-4-yl)-5-methyl-2-(4-(trifluoromethyl)benzyl)-2,3,4,5-tetrahydro-1H-pyrido[4,3-b]indole-8-carboxamide]

EC50: 0.5 to 1 µM
SMILES: Cn1c2c(c3cc(C(=O)NC4CCN(Cc5ccc(C(F)(F)F)cc5)CC4)ccc31)CN(Cc1ccc(C(F)(F)F)cc1)CC2 [Compound 2-17, N-(1-(4-trifluoromethylbenzyl)piperidin-4-yl)-5-methyl-2-(4-(trifluoromethyl)benzyl)-2,3,4,5-tetrahydro-1H-pyrido[4,3-b]indole-8-carboxamide]

Source: patent publication US9409884B2 (Rigel Pharmaceuticals, Inc., priority 2012, dated 2016)
